Source: patent US5169857A, “7-(polysubstituted pyridyl)-hept-6-endates useful for treating hyperproteinaemia, lipoproteinaemia or arteriosclerosis” (Bayer Aktiengesellschaft, priority 1988, dated 1992)

Legend:
[1] = target: T1, HMG-CoA reductase (3-hydroxy-3-methyl-glutaryl coenzyme A reductase) (Rattus norvegicus, UniProt P51639); test: determination of HMG-CoA reductase enzyme activity (rat liver enzyme preparation); relative inhibitory potency vs mevinolin; conditions: relative inhibitory potency from IC50 values; IC50 of reference mevinolin set at 1; 20 min preincubation, 60 min at 37° C.
T1 sequence (P51639 1-887): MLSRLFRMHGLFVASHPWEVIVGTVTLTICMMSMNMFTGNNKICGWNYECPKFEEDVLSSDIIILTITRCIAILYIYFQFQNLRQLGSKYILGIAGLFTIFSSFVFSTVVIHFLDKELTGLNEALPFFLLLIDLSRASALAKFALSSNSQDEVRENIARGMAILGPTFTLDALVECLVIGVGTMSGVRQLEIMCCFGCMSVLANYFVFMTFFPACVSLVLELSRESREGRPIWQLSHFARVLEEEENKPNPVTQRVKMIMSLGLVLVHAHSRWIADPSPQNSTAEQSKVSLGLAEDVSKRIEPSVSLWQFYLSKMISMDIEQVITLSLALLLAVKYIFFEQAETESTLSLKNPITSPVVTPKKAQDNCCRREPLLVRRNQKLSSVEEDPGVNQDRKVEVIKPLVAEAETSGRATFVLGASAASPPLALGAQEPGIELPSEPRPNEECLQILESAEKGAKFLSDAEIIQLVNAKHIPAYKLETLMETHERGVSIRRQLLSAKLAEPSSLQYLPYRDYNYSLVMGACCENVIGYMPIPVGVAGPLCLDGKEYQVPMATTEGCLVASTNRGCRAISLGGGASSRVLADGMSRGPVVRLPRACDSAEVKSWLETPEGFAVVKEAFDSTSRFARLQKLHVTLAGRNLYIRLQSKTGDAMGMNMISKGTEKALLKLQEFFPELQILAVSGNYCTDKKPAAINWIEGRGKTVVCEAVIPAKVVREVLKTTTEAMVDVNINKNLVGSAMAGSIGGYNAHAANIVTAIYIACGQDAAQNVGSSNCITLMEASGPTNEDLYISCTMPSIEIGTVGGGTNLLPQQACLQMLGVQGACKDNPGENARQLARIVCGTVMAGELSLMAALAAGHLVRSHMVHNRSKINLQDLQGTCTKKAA
Procedure: Male Rico rats (body weight 300-400 g) were treated for 11 days with Altromin powdered feed, to which 40 g of colestyramine/kg of feed was added. After decapitation, the liver was removed from the animals and placed on ice. The livers were comminuted and homogenized 3 times in a Potter-Elvejem homogenizer in 3 volumes of 0.1 M saccharose, 0.05 M KCl, 0.04 M Kx Hy phosphate, 0.03 M ethylenediaminetetraacetic acid, 0.002 M dithiothreitol (SPE) buffer pH 7.2. The mixture was subsequently centrifuged for 15 minutes at 15,000* g and the sediment rejected. The supernatant was sedimented for 75 minutes at 100,000 g. The pellet is taken up in 1/4 volume of SPE buffer, homogenized once again and subsequently centrifuged again for 60 minutes at 100,000 g. The pellet is taken up using the 5-fold amount of its volume of SPE buffer, homogenized and frozen and stored at -78° C. (=enzyme solution).
For testing, the test compounds (or mevinolin as a reference substance) were dissolved in dimethylformamide with the addition of 5% by volume of 1 N NaOH and employed in the enzyme test in various concentrations using 10 μl. The test was started after preincubation of the compound with the enzyme at 37° C. for 20 minutes. The test batch was 0.380 ml and contained 4 μmol of glucose-6-phosphate, 1.1 mg of bovine serum albumin, 2.1 μmol of dithiothreitol, 0.35 μmol of NADP, 1 unit of glucose-6-phosphate dehyrogenase 35 μmol of KxHy phosphate PH 7.2, 20 μl of enzyme preparation and 56 nmol of 3x hydroxy-3-methyl-glutarylconenzyme A (glutaryl-3-^14 C) 100,000 dpm.
After incubation for 60 minutes at 37° C., the batch was centrifuged and 600 μl of the supernatant was applied to a 0.7×4 cm column filled with a 5-chloride 100-200 mesh (anion exchanger). It was washed with 2 ml of distilled water and 3 ml of aquasol were added to the runnings plus washing water and counted in the LKB scintillation counter. IC50 values were determined by intrapolation by plotting the percentage inhibition against the concentration of the compound in the test. To determine the relative inhibitory potency, the IC50 value of the reference substance mevinolin was set at 1 and compared with the simultaneously determined IC50 value of the test compound.

[2] = system: serum cholesterol; test: subchronic action on the blood cholesterol values of dogs in feeding experiments; assay type: in vivo; conditions: 8 mg/kg p.o. daily for 2 weeks; beagle dogs; colestyramine 4 g/100 g of feed throughout; vs values before administration
Procedure: The subchronic action of the compounds according to the invention on the blood cholesterol values of dogs was tested in feeding experiments of several weeks duration. For this, the substance to be investigated was given p.o. once daily in a capsule to healthy beagle dogs together with the feed over a period of time lasting several weeks. Colestyramine (4 g/100 g of feed) as the […] sequestrant was additionally admixed in the feed during the entire experimental period, i.e. before, during and after the administration period of the substances to be investigated. Venous blood was taken from the dogs twice weekly and the serum cholesterol was determined enzymatically using a commercial test kit. The serum cholesterol values during the administration period were compared with the serum cholesterol values before the administration period (controls).

Rel. Activity (Mevinolin = 1) [1] | Structure (SMILES) | lowering of the serum cholesterol [2]
20 | COC(=O)C[C@H](O)C[C@H](O)/C=C/c1c(C(C)C)nc(C(C)C)c(-c2ccccc2)c1-c1ccc(F)cc1 (relative stereo) [Example 99] | 
20 | COC(=O)C[C@H](O)C[C@H](O)/C=C/c1c(C(C)C)nc(C(C)C)c(COCc2ccccc2)c1-c1ccc(F)cc1 (relative stereo) [Example 17, Methyl erythro-(E)-7-[3-benzyloxymethyl-2,6-diisopropyl-4-(4-fluorophenyl)-pyrid-5-yl]-3,5-dihydroxy-hept-6-enoate] | about 66%
30 | CCC(C)(C)C(=O)OCc1c(C(C)C)nc(C(C)C)c(/C=C/[C@@H](O)C[C@@H](O)CC(=O)OC)c1-c1ccc(F)cc1 (relative stereo) [Example 70, Methyl erythro-(E)-7-[2,6-diisopropyl-5-(2,2-dimethyl-butyryloxymethyl)-4-(4-fluorophenyl)-pyrid-3-yl]-3,5-dihydroxy-hept-6-enoate] | 
20 | COC(=O)C[C@H](O)C[C@H](O)/C=C/c1c(-c2ccc(F)cc2)nc(C)c(C#N)c1C(C)C (relative stereo) [Example 139, Methyl erythro-(E)-7-[5-cyano-2-(4-fluorophenyl)-4-isopropyl-6-methyl-pyrid-3-yl]-3,5-dihydroxy-hept-6-enoate] | 
20 | COCc1c(C2CC2)nc(C(C)C)c(/C=C/[C@@H](O)C[C@@H](O)CC(=O)OC)c1-c1ccc(F)cc1 (relative stereo) [Example 85, Methyl erythro-(E)-7-[6-cyclopropyl-2-isopropyl-4-(4-fluorophenyl)-5-methoxymethyl-pyrid-3-yl]-3,5-dihydroxy-hept-6-enoate] | 
3 | COC(=O)C[C@H](O)C[C@H](O)/C=C/c1c(C(C)C)nc(C(C)C)c(CSCc2ccccc2)c1-c1ccc(F)cc1 (relative stereo) [Example 107, Methyl erythro-(E)-7-[2,6-diisopropyl-4-[4-fluorophenyl)-5-benzylthio-methyl-pyrid-3-yl]-3,5-dihydroxy-hept-6-enoate] | 
10 | COC(=O)C[C@H](O)C[C@H](O)/C=C/c1c(C(C)C)nc(C(C)C)c(COc2ccccc2)c1-c1ccc(F)cc1 (relative stereo) [Example 89, Methyl erythro-(E)-7-[2,6-diisopropyl-4-(4-fluorophenyl)-5-phenoxymethyl-pyrid-3-yl]-3,5-dihydroxy-hept-6-enoate] | 
4 | COC(=O)C[C@H](O)C[C@H](O)/C=C/c1c(C(C)C)nc(C(C)C)c(CN2CCOCC2)c1-c1ccc(F)cc1 (relative stereo) [Example 105, Methyl erythro-(E)-7-[2,6-diisopropyl-4-(4-fluorophenyl)-5-morpholinomethyl-pyrid-3-yl]-3,5-dihydroxy-hept-6-enoate] | 
30 | CCOC(=O)c1c(C(C)C)nc(C(C)C)c(/C=C/[C@@H](O)C[C@@H](O)CC(=O)OC)c1-c1ccc(F)cc1 (relative stereo) [Example 100, Methyl erythro-(E)-7-[2,6-diisopropyl-4-(4-fluorophenyl)-5-carboxyethyl-pyrid-3-y]-3,5-dihydroxy-hept-6-enoate] | 

Structure (SMILES) | Rel. Activity (Mevinolin = 1) [1] | lowering of the serum cholesterol [2]
COC(=O)C[C@H](O)C[C@H](O)/C=C/c1c(C(C)C)nc(C(C)C)c(COC(C)=O)c1-c1ccc(F)cc1 (relative stereo) [Example 72, methyl erythro-(E)-7-[3-acetoxymethyl-2,6-diisopropyl-4-(4-fluorophenyl)-pyrid-5-yl]-3,5-dihydroxy-hept-6-enoate] | 17 | 
